# Assays:
# [1] = system: NIH3T3; test: Cytotoxicity against mouse NIH/3T3 cells after 24 hrs by MTT assay; type: cell-based; conditions: NIH3T3, 24 h
# [2] = biological target: T1, ATP-dependent translocase ABCB1 (Homo sapiens, UniProt P08183); test: Inhibition of human ABCB1 expressed in mouse L5178Y cells assessed as increase in rhodamine-123 accumulation by measuring forward scatter count of cells at 20 uM pretreated for 10 mins followed by rhodamine-123 addition after 20 mins by flow cytometry (reference value: 2206); type: cell-based
# T1 sequence (P08183 whole entry): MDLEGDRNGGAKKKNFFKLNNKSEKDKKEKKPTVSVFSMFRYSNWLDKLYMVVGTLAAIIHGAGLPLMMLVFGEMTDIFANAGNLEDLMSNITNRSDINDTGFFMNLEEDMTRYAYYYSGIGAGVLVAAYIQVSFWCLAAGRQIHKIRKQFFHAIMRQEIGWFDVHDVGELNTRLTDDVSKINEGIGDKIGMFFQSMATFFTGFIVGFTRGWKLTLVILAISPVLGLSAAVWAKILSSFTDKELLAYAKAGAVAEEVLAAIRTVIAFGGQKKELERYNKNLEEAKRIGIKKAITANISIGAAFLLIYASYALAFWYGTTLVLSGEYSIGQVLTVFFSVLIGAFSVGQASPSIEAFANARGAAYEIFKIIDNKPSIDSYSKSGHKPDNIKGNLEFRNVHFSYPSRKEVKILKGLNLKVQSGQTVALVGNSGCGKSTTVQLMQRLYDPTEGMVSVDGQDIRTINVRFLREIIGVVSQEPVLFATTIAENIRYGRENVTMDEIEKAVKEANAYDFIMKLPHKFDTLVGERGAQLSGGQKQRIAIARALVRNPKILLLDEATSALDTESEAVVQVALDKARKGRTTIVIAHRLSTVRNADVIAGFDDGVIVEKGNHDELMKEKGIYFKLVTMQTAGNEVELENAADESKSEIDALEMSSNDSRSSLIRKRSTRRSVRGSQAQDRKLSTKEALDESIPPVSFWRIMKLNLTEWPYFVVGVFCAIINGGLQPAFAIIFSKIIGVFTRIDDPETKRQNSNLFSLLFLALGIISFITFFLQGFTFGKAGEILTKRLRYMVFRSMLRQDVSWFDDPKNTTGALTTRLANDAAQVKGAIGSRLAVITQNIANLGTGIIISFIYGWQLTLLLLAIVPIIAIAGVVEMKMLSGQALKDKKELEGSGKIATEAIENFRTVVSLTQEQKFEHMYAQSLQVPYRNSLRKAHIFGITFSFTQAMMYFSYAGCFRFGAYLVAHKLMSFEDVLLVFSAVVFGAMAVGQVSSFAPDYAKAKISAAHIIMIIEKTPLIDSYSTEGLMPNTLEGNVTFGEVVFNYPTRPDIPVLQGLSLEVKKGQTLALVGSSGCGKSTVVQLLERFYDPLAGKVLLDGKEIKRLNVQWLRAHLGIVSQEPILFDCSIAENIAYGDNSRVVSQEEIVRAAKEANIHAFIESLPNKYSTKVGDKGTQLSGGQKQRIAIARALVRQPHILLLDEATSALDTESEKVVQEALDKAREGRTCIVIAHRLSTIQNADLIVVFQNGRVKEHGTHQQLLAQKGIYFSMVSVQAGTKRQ
# [3] = biological target: T1, ATP-dependent translocase ABCB1; test: Inhibition of human ABCB1 expressed in mouse L5178Y cells assessed as fluorescence activity ratio at 20 uM pretreated for 10 mins followed by rhodamine-123 addition after 20 mins by flow cytometry; type: cell-based
# [4] = biological target: T1, ATP-dependent translocase ABCB1; test: Inhibition of human ABCB1 expressed in mouse L5178Y cells assessed as increase in rhodamine-123 accumulation by measuring side scatter count of cells at 2 uM pretreated for 10 mins followed by rhodamine-123 addition after 20 mins by flow cytometry (reference value: 903); type: cell-based
# [5] = biological target: T1, ATP-dependent translocase ABCB1; test: Inhibition of human ABCB1 expressed in mouse L5178Y cells assessed as fluorescence activity ratio at 2 uM pretreated for 10 mins followed by rhodamine-123 addition after 20 mins by flow cytometry; type: cell-based
# [6] = biological target: T1, ATP-dependent translocase ABCB1; test: Inhibition of human ABCB1 expressed in mouse L5178Y cells assessed as increase in rhodamine-123 accumulation by measuring side scatter count of cells at 20 uM pretreated for 10 mins followed by rhodamine-123 addition after 20 mins by flow cytometry (reference value: 903); type: cell-based
# [7] = system: L5178Y; test: Cytotoxicity against mouse L5178Y cells after 24 hrs by MTT assay; type: functional, cell-based
# [8] = biological target: T1, ATP-dependent translocase ABCB1; test: Inhibition of human ABCB1 expressed in mouse L5178Y cells pretreated for 10 mins followed by rhodamine-123 addition after 20 mins by flow cytometry; type: cell-based
# [9] = biological target: T1, ATP-dependent translocase ABCB1; test: Inhibition of human ABCB1 expressed in mouse L5178Y cells assessed as increase in rhodamine-123 accumulation by measuring forward scatter count of cells at 2 uM pretreated for 10 mins followed by rhodamine-123 addition after 20 mins by flow cytometry (reference value: 2206); type: cell-based
SMILES,IC50 [1] [µM],Activity [2],Ratio [3],Activity [4],Ratio [5],Activity [6],IC50 [7] [µM],inhibition (INH) [8],Activity [9]
CC[C@H]1CN(C)[C@H]2Cc3c([nH]c4ccccc34)C(=O)C[C@H]1[C@@H]2C(=O)OC,> 100,2240,15.35,1081,1.79,1098,82.4,Dose-dependent effect,2353
C/C=C/C(=O)O[C@H]1C[C@@H]2[C@@H](CC)CN(C)[C@@H](Cc3c1[nH]c1ccccc31)[C@H]2C(=O)OC,> 100,2447,18.09,1226,2.42,1213,90.3,Dose-dependent effect,2440
CC[C@H]1CN(C)[C@H]2Cc3c([nH]c4ccccc34)/C(=N/NC(N)=O)C[C@H]1[C@@H]2C(=O)OC,> 100,2380,2.24,778,1.16,756,> 100,Dose-dependent effect,2312
CC[C@@H]1CN(C)[C@H]2Cc3c([nH]c4ccccc34)C(=O)C[C@H]1[C@@H]2C(=O)OC,> 100,2180,1.38,1146,0.77,1033,56.8,Dose-dependent effect,2182
CC[C@H]1CN(C)[C@H]2Cc3c(n(CCN(CC)CC)c4ccccc34)C(=O)C[C@H]1[C@@H]2C(=O)OC,> 100,2440,52.93,1214,2.56,1192,67.1,Dose-dependent effect,2415
CC[C@H]1CN(C)[C@H]2Cc3c(n(C(=O)c4cccc(C)c4)c4ccccc34)C(=O)C[C@H]1[C@@H]2C(=O)OC,> 100,2449,12.1,1197,0.95,1204,> 100,Dose-dependent effect,2436
CC[C@@H]1CN(C)[C@H]2Cc3c([nH]c4ccccc34)/C(=N/NC(N)=O)C[C@H]1[C@@H]2C(=O)OC,> 100,2389,2.12,793,1.04,770,> 100,Dose-dependent effect,2410
CC[C@@H]1CN(C)[C@H]2Cc3c([nH]c4ccccc34)[C@@H](OC(=O)C34CC5CC(CC(C5)C3)C4)C[C@H]1[C@@H]2C(=O)OC,> 100,2442,8.61,1209,1.08,1203,> 100,Dose-dependent effect,2450
CC[C@H]1CN(C)[C@H]2Cc3c([nH]c4ccccc34)[C@@H](O)C[C@H]1[C@@H]2C(=O)OC,> 100,2199,5.18,809,1.03,797,> 100,Dose-dependent effect,2212
COc1ccc(CCN(C)CCCC(C#N)(c2ccc(OC)c(OC)c2)C(C)C)cc1OC (stereo not drawn),,2611,,,,1078,,,

# From ChEMBL document CHEMBL4004848, “Dregamine and tabernaemontanine derivatives as ABCB1 modulators on resistant cancer cells” (Eur J Med Chem, 2017)
